# Reference: patent publication US12233089B2, “Foods to promote better health and/or to maintain homeostasis and method of production thereof” (Vector Vitale IP LLC, priority 2021, dated 2025)
# Counter-ions that a name gives are not always drawn.
# Assays:
# RNA and DNA synthesis = assay: Inhibition of RNA and DNA synthesis; format: cell-based
# P. aeruginosa ATCC 27853 [1] = assay: MIC (bacteriostatic activity), P. aeruginosa; format: cell-based
# Text: (§1) The conditions of the experiment were like those for Zn-64 compound.
# S. aureus ATCC 25923 [2] = assay: MIC (bacteriostatic activity), S. aureus; format: cell-based; settings: Table 5
# Text: as §1
# S. aureus ATCC 25923 [3] = assay: Minimum bactericidal concentration (MBC), S. aureus; format: cell-based; settings: Table 6
# Description: (§2) To evaluate the bactericidal action of the antibacterial composition based on light isotope ^64Zne the minimum bactericidal concentration (MBC) was determined by plating out 0.1 ml of the contents of each tube containing the antibacterial composition on Mueller-Hinton medium. The incubation was at 37° C. for 24 h.
# (§3) The MBC of the test samples was determined as the lowest concentration at which there was no growth on Mueller-Hinton agar medium.
# as §1
# P. aeruginosa ATCC 27853 [4] = assay: Minimum bactericidal concentration (MBC), P. aeruginosa; format: cell-based; settings: Table 6
# Description: as §2, §3, §1
# E. coli ATCC 25922 [5] = assay: Minimum bactericidal concentration (MBC), E. coli; format: cell-based; settings: Table 6
# Description: as §2, §3, §1
# E. coli ATCC 25922 [6] = assay: MIC (bacteriostatic activity), E. coli; format: cell-based; settings: Table 5
# Text: as §1
# herpes virus = format: cell-based; settings: in vitro
# influenza virus = assay: In vitro reproduction of influenza virus; format: cell-based
# [7] = system: BVDV—bovine viral diarrhea virus; format: cell-based; settings: in vitro
Compound,assessment of cytotoxicity and antiviral activity for anti-EBV infection (Epstein-Barr virus),reproduction of herpes virus (herpes virus),reproduction of influenza virus (influenza virus),reproduction of surrogate model of HCV (BVDV) virus [7],also measured
O=C(O)CC(O)(CC(=O)O)C(=O)O [^64Zne citrate],most promising,–,–,–,RNA and DNA synthesis (RNA and DNA synthesis): Inhibition
"O=S(=O)([O-])[O-].[Zn+2] [Natural zinc - sulfate, reference compound]",–,–,–,–,MIC (P. aeruginosa ATCC 27853 [1]; Table 5): 750 zinc mcg/ml; MIC (S. aureus ATCC 25923 [2]): 93.75 zinc mcg/ml; MBC (S. aureus ATCC 25923 [3]): >750 mcg zinc/ml; MBC (P. aeruginosa ATCC 27853 [4]): >750 mcg zinc/ml; MBC (E. coli ATCC 25922 [5]): >750 mcg zinc/ml; MIC (E. coli ATCC 25922 [6]): 187.5 zinc mcg/ml
NC(CCC(=O)[O-])C(=O)[O-].[64Zn+2] (stereo not shown) [zinc-64 light isotope glutamate],–,effectively inhibited,effectively inhibited,effectively inhibited,–
Zn64 EDDA,most promising,–,–,–,bacteriostatic activity (in words) (P. aeruginosa ATCC 27853 [1]): best results
"N[C@@H](CCC(=O)[O-])C(=O)[O-].[Zn+2] [Zinc glutamate, reference compound]",–,effectively inhibited,effectively inhibited,effectively inhibited,–
